Data on 3 compounds can be found in patent US20100324312A1, “NOVEL METHYLATED CATECHIN AND COMPOSITION CONTAINING THE SAME” (INCORPORATED ADMINSTRATIVE AGENCY NATIONAL AGRICULTURE AND …, priority 2007, published 2010).

The conditions of assay [1]: compared with EGCG; cited from earlier work.
The subject of assay [2] is BMMC (mouse bone marrow-derived mast cells). Description: Histamine release inhibitory activity in mouse mast cells (IgE-sensitized BMMC, DNP-HSA induced degranulation). The settings on record: 12.5 and 25 μg/mL test sample, 10 min incubation, DNP-HSA antigen 20 min; histamine in supernatant relative to control (distilled water); FIG. 2; compared with epigallocatechin-3-O-gallate and epigallocatechin-3-O-(3-O-methyl)gallate. The assay is classed as cell-based. As to the method: FIG. 2 is a graph showing the histamine release inhibitory activity in mouse mast cells. In FIG. 2, numeral 1 denotes 12.5 μg/mL of epigallocatechin-3-O-gallate; numeral 2 denotes 25 μg/mL of epigallocatechin-3-O-gallate; numeral 3 denotes 12.5 μg/mL of epigallocatechin-3-O-(3-O-methyl)gallate: numeral 4 denotes 25 μg/mL of epigallocatechin-3-O-(3-O-methyl)gallate; numeral 5 denotes 12.5 μg/mL of epi(3-O-methyl)gallocatechin-3-O-(3,5-O-dimethyl)gallate; and numeral 6 denotes 25 μg/mL of epi(3-O-methyl)gallocatechin-3-O-(3,5-O-dimethyl)gallate.
The effect of epi(3-O-methyl)gallocatechin-3-O-(3,5-O-dimethyl)gallate was determined based on the histamine release inhibitory activity in mouse mast cells. Epigallocatechin-3-O-gallate and epigallocatechin-3-O-(3-O-methyl)gallate known to have stronger antiallergic activity than epigallocatechin-3-O-gallate were used as comparison substances. […] Then, DNP-HSA (antigen) was added thereto to induce degranulation (20 minutes), and the amount of histamine in the supernatant was measured by liquid chromatography. The antiallergic activity was evaluated based on the relative value with respect to the value for the control (distilled water). […]

On to “epigallocatechin-3-O-(3-O-methyl)gallate”, for which the antiallergic activity result in assay [1] is “stronger antiallergic activity than EGCG”.
In the case of `COc1cc([C@H]2Oc3cc(O)cc(O)c3C[C@H]2OC(=O)c2cc(OC)c(O)c(OC)c2)cc(O)c1O` [epi(3-O-methyl)gallocatechin-3-O-(3,5-O-dimethyl)gallate], the “histamine release inhibitory activity” value in assay [2] is recorded as “stronger than those of the comparison substances”.
As to `COc1c(O)cc(C(=O)O[C@@H]2Cc3c(O)cc(O)cc3O[C@@H]2c2cc(O)c(O)c(O)c2)cc1O` [epigallocatechin-3-O-(4-O-methyl)gallate], the antiallergic activity result in assay [1] is reported as “stronger antiallergic activity than EGCG”.
